Test results from ChEMBL document CHEMBL1201862, “PubChem BioAssay data set” (2004).
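96-well plates; 48 h exposure; 5 concentrations. Endpoints by linear interpolation between flanking doses. Not reached: highest tested concentration assigned. GI50 = concentration required for 50% inhibition of growth.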 Active and inactive are the calls of the source. Rule as the data show it: active = GI50 up to about 1.1 µM and inactive = higher.

How the values were obtained:
Assay in all cases: inhibition of tumour cell growth, NCI panel, 48 h
786-0 = test system: 786-0
A498 = test system: A498
A549 = test system: A549
ACHN = test system: ACHN
BT-549 = test system: BT-549
CAKI-1 = test system: CAKI-1
CCRF-CEM = test system: CCRF-CEM
COLO 205 = test system: COLO 205
DU-145 = test system: DU-145
EKVX = test system: EKVX
HCT-116 = test system: HCT-116
HCT-15 = test system: HCT-15
HL-60 = test system: HL-60
HOP-62 = test system: HOP-62
HOP-92 = test system: HOP-92
HT-29 = test system: HT-29
Hs-578T = test system: Hs-578T
IGROV-1 = test system: IGROV-1
K562 = test system: K562
KM12 = test system: KM12
LOX IMVI = test system: LOX IMVI
M14 = test system: M14
MCF7 = test system: MCF7
MDA-MB-231 = test system: MDA-MB-231
MDA-MB-435 = test system: MDA-MB-435
MDA-N = test system: MDA-N
MOLT-4 = test system: MOLT-4
Malme-3M = test system: Malme-3M
NCI-H226 = test system: NCI-H226
NCI-H23 = test system: NCI-H23
NCI-H460 = test system: NCI-H460
NCI-H522 = test system: NCI-H522
NCI/ADR-RES = test system: NCI/ADR-RES
OVCAR-3 = test system: OVCAR-3
OVCAR-4 = test system: OVCAR-4
OVCAR-5 = test system: OVCAR-5
OVCAR-8 = test system: OVCAR-8
PC-3 = test system: PC-3
RPMI-8226 = test system: RPMI-8226
RXF 393 = test system: RXF 393
SF-268 = test system: SF-268
SF-295 = test system: SF-295
SF-539 = test system: SF-539
SK-MEL-28 = test system: SK-MEL-28
SK-MEL-2 = test system: SK-MEL-2
SK-MEL-5 = test system: SK-MEL-5
SK-OV-3 = test system: SK-OV-3
SN12C = test system: SN12C
SNB-19 = test system: SNB-19
SNB-75 = test system: SNB-75
SW-620 = test system: SW-620
T47D = test system: T47D
TK-10 = test system: TK-10
U-251 = test system: U-251
UACC-62 = test system: UACC-62
UO-31 = test system: UO-31
HCC 2998 = test system: HCC 2998
SR = test system: SR
UACC-257 = test system: UACC-257

COC(=O)Nc1nc2cc(NS(=O)(=O)c3cccs3)ccc2[nH]1
GI50 (786-0): 34.3 µM (inactive) | GI50 (A498): 28 µM (inactive) | GI50 (A549): 43.9 µM (inactive) | GI50 (ACHN): 42.8 µM (inactive) | GI50 (BT-549): 71.8 µM (inactive) | GI50 (CAKI-1): 30.4 µM (inactive) | GI50 (CCRF-CEM): 34.8 µM (inactive) | GI50 (COLO 205): 20.7 µM (inactive) | GI50 (DU-145): 47.3 µM (inactive) | GI50 (EKVX): 22.4 µM (inactive) | GI50 (HCT-116): 18.4 µM (inactive) | GI50 (HCT-15): 14.3 µM | GI50 (HL-60): 23 µM (inactive) | GI50 (HOP-62): 26.4 µM (inactive) | GI50 (HOP-92): 16.3 µM (inactive) | GI50 (HT-29): 23 µM (inactive) | GI50 (Hs-578T): 10.4 µM (inactive) | GI50 (IGROV-1): 10.9 µM (inactive) | GI50 (K562): 5.53 µM (inactive) | GI50 (KM12): 13.7 µM (inactive) | GI50 (LOX IMVI): 36.3 µM (inactive) | GI50 (M14): 21.5 µM (inactive) | GI50 (MCF7): 17.8 µM (inactive) | GI50 (MDA-MB-231): 31 µM (inactive) | GI50 (MDA-MB-435): 3.62 µM (inactive) | GI50 (MDA-N): 3.56 µM (inactive) | GI50 (MOLT-4): 13.6 µM (inactive) | GI50 (Malme-3M): 10.4 µM (inactive) | GI50 (NCI-H226): 32.2 µM (inactive) | GI50 (NCI-H23): 30.5 µM (inactive) | GI50 (NCI-H460): 32.2 µM (inactive) | GI50 (NCI-H522): 6.55 µM (inactive) | GI50 (NCI/ADR-RES): 25.1 µM (inactive) | GI50 (OVCAR-3): 14.6 µM (inactive) | GI50 (OVCAR-4): 38.9 µM (inactive) | GI50 (OVCAR-5): 37.2 µM (inactive) | GI50 (OVCAR-8): 36.4 µM (inactive) | GI50 (PC-3): 33.9 µM (inactive) | GI50 (RPMI-8226): 35.1 µM (inactive) | GI50 (RXF 393): 19.3 µM (inactive) | GI50 (SF-268): 38.3 µM (inactive) | GI50 (SF-295): 24.9 µM (inactive) | GI50 (SF-539): 29.2 µM (inactive) | GI50 (SK-MEL-28): 19.3 µM (inactive) | GI50 (SK-MEL-2): 76.6 µM (inactive) | GI50 (SK-MEL-5): 18.6 µM (inactive) | GI50 (SK-OV-3): 28.4 µM (inactive) | GI50 (SN12C): 39.1 µM (inactive) | GI50 (SNB-19): 23.2 µM (inactive) | GI50 (SNB-75): 20.7 µM (inactive) | GI50 (SW-620): 20.7 µM (inactive) | GI50 (T47D): 28.7 µM (inactive) | GI50 (TK-10): 25.9 µM (inactive) | GI50 (U-251): 30.4 µM (inactive) | GI50 (UACC-62): 17 µM (inactive) | GI50 (UO-31): 30.1 µM (inactive)

CCn1c(-c2ccc(F)cc2)nc2c1C(=O)c1ccccc1C2=O
GI50 (786-0): > 100 µM (inactive) | GI50 (A549): > 100 µM (inactive) | GI50 (ACHN): > 100 µM (inactive) | GI50 (BT-549): > 100 µM (inactive) | GI50 (CCRF-CEM): > 100 µM (inactive) | GI50 (COLO 205): > 100 µM (inactive) | GI50 (DU-145): > 100 µM (inactive) | GI50 (EKVX): > 100 µM (inactive) | GI50 (HCC 2998): > 100 µM (inactive) | GI50 (HCT-116): > 100 µM (inactive) | GI50 (HCT-15): > 100 µM | GI50 (HL-60): > 100 µM (inactive) | GI50 (HOP-62): > 100 µM (inactive) | GI50 (HOP-92): > 100 µM (inactive) | GI50 (HT-29): 75.5 µM (inactive) | GI50 (Hs-578T): > 100 µM (inactive) | GI50 (IGROV-1): > 100 µM (inactive) | GI50 (K562): > 100 µM (inactive) | GI50 (KM12): > 100 µM (inactive) | GI50 (M14): 71 µM (inactive) | GI50 (MCF7): > 100 µM (inactive) | GI50 (MDA-MB-231): > 100 µM (inactive) | GI50 (MDA-MB-435): > 100 µM (inactive) | GI50 (MDA-N): > 100 µM (inactive) | GI50 (MOLT-4): > 100 µM (inactive) | GI50 (Malme-3M): 45.1 µM (inactive) | GI50 (NCI-H226): 91 µM (inactive) | GI50 (NCI-H23): > 100 µM (inactive) | GI50 (NCI-H460): > 100 µM (inactive) | GI50 (NCI-H522): > 100 µM (inactive) | GI50 (NCI/ADR-RES): > 100 µM (inactive) | GI50 (OVCAR-3): 33.8 µM (inactive) | GI50 (OVCAR-4): > 100 µM (inactive) | GI50 (OVCAR-5): > 100 µM (inactive) | GI50 (OVCAR-8): > 100 µM (inactive) | GI50 (PC-3): > 100 µM (inactive) | GI50 (RPMI-8226): > 100 µM (inactive) | GI50 (RXF 393): 54 µM (inactive) | GI50 (SF-268): > 100 µM (inactive) | GI50 (SF-295): > 100 µM (inactive) | GI50 (SF-539): > 100 µM (inactive) | GI50 (SK-MEL-28): > 100 µM (inactive) | GI50 (SK-MEL-5): > 100 µM (inactive) | GI50 (SK-OV-3): 20.7 µM (inactive) | GI50 (SN12C): > 100 µM (inactive) | GI50 (SNB-19): > 100 µM (inactive) | GI50 (SNB-75): > 100 µM (inactive) | GI50 (SR): > 100 µM (inactive) | GI50 (SW-620): > 100 µM (inactive) | GI50 (T47D): > 100 µM (inactive) | GI50 (TK-10): > 100 µM (inactive) | GI50 (U-251): > 100 µM (inactive) | GI50 (UACC-257): > 100 µM (inactive) | GI50 (UACC-62): > 100 µM (inactive)
